Measurements from US20060241067A1, “Methods For inhibiting angiogenesis, cell migration, cell adhesion, and cell survival” (priority 2002, published 2006).
“Also recorded” adds a separate entry of the source.

Test system: HUVECS
Test: Staining of actin filaments and focal contacts (rhodamine phalloidin, anti-vinculin)
Assay type: cell-based, human
Description: Round […] glass coverslips were coated with 5 μg/ml vitronectin for 1 hour at 37° C., then blocked with 3% bovine serum albumin for 2 hours at 37° C. HUVECS were removed from culture dishes by trypsizination, washed in serum-free culture medium, and resuspended in endothelial basal culture medium. Cells were then incubated for one hour at 37° C. on coated coverslips. Cells were incubated in the presence of 25 μg/ml anti-α5β1, anti-α2β1 or no antibodies for 60 minutes. Alternatively, cells in endothelial growth medium containing VEGF and bFGF but no serum were plated on coverslips for 48 hours and then treated with cAMP or medium. Coverslips were then washed to remove unbound cells, fixed for 5 minutes in 3.7% paraformaldehyde and permeabilized in 0.3% TX-100 for 3 minutes. Coverslips were incubated with 0.2 μg/ml anti-vinculin antibodies or rhodamine phalloidin (20 ng/ml) in 20 mg/ml bovine serum albumin in phosphate buffered saline for one hour at room temperature. Coverslips were well washed in PBS and incubated in 10 μg/ml goat anti-mouse-Alexa 568 (for anti-vinculin) for 1 hour at room temperature. Coverslips were mounted using mounting medium prior to fluorescent microsopy.

With `CCCC(=O)Nc1ncnc2c1ncn2[C@@H]1O[C@@H]2COP(=O)(O)O[C@H]2[C@H]1OC(=O)CCC` [dibutyryl cAMP] the “increase in the number of focal adhesions” value (cAMP treated versus untreated cells) was 3 fold, the “cell shape, stress fibers and actin remodeling” value (cAMP treatment or transfection, vitronectin) was “remain round and flat and exhibit neither stress fibers nor cortical actin; also recorded: inhibited actin remodeling and induced a flattened morphology” and the “localization of Rho A” value (immunolocalization, cAMP treated cells) was “stimulates the translocation of Rho A to the plasma membrane”.
